Experimental data from patent publication EP0104300A1, “Diazolyl alkanoles, process for their preparation and their use as antimycotic agents” (BAYER AG, priority 1982, dated 1984).

These compounds were tested on Candida-Zellen (assay: Antimycotic in-vivo efficacy (oral) in mouse candidosis). Conditions: mice infected i.v. with 1 - 2 x 10^6 Candida cells; oral treatment with 50 - 100 mg/kg each, 1 h before and 7 h after infection; survivors on day 6 p.i.
Parameters: species or system Mäuse vom Typ SPF-CF1; key: +++++: sehr gute Wirkung = 90 % Ueberlebende am 6.Tag p.i.; ++++: gute Wirkung = 80 % Ueberlebende am 6 Tag p.i.; +++: Wirkung = 60 % Ueberlebende am 6. Tag p.i.; ++: schwache Wirkung = 40 % Ueberlebende am 6.Tag p.i.; +: Spur Wirkung =; k.W.: keine Wirkung
Method: Antimykotische in-vivo-Wirksamkeit (oral) bei Mäusecandidose Versuchsbeschreibun:
Mäuse vom Typ SPF-CF1 wurden intravenös mit 1 - 2 x 10^6 logarithmisch wachsenden Candida-Zellen, die in physiologischer Kochsalzlösung suspendiert werden, infiziert. Eine Stunde vor und sieben Stunden nach der Infektion werden die Tiere mit jeweils 50 - 100 mg/kg Körpergewicht der Präparate oral behandelt.
Unbehandelte Tiere starben 3 bis 6 Tage post infektionem. Die Ueberlebensrate am 6.Tag post infektionem betrug bei unbehandelten Kontrolltieren etwa 5 %. In diesem Test zeigten z.B. die erfindungsgemäßen Verbindungen eine bessere Wirkung als die aus dem Stand der Technik bekannten Verbindungen 1 und 3.
+++++ = sehr gute Wirkung = 90 % Ueberlebende am 6.Tag p.i. ++++ = gute Wirkung = 80 % Ueberlebende am 6 Tag p.i. +++ = Wirkung = 60 % Ueberlebende am 6. Tag p.i. ++ = schwache Wirkung = 40 % Ueberlebende am 6.Tag p.i. + = Spur Wirkung = k.W. = keine Wirkung

Compound	Wirkung
OC(Cc1ccc(Cl)cc1Cl)(Cn1ccnc1)c1ccc(-c2ccccc2)cc1 (centres unmarked) [(A), 2-(4-Biphenylyl)-1-(2,4-dichlorphenyl)-3-(imidazoL-1-yL)-2-propanoL]	k.W.
CC(C)(C)C(O)(COc1ccc(Cl)cc1)Cn1ccnc1 (centres unmarked) [(B), 2-(4-Chlorphenoxymethyl)-3,3-dimethyl-1-(imidazol-1-yl)-butan-2-ol]	k.W.
Cc1ccccc1OCC(O)(Cn1ccnc1)C(C)(C)C (centres unmarked) [(C)]	k.W.
OC(C#Cc1ccccc1)(Cn1cncn1)Cn1cncn1 [Beispiel 1, 3-Hydroxy-1-phenyL-4-(1,2,4-triazol-1-yl)-3-(1,2,4-triazol-1-yl-methyl)-1-butin]	+++ (Wirkung = 60 % Ueberlebende am 6. Tag p.i.)
OC(C#Cc1ccc(Cl)cc1)(Cn1cncn1)Cn1cncn1 [Beispiel 3]	+++++ (sehr gute Wirkung = 90 % Ueberlebende am 6.Tag p.i.)
